# Patent US20220288077A1, “PROSTATITIS TREATMENT” (NATIONAL INSTITUTE OF BIOLOGICAL SCIENCES, priority 2019, published 2022)
# Test system: carrageenan-induced male rat prostate disease model
# Test: Carrageenan-induced male rat prostate disease model: representative RIP1, RIP3 and MLKL inhibitors
# Format: in vivo
# Conditions: list after the methods of the example; protocols based on RIPA-56
# Protocol: Experimental protocols for the compounds of Table 1 were based on those used for RIPA-56. Each inhibitor was intraperitoneally or orally administrated to rat before carrageenan treatment, at the dose of 20 mg/kg to 100 mg/kg.
# Each inhibitor was intraperitoneally or orally administrated to rat before carrageenan treatment, at the dose of 20 mg/kg to 100 mg/kg.
# All the SD rats were randomly divided into different groups (n=8-10): control group, model group, and compounds-treated groups. For injection of carrageenan or saline, rats were anesthetized with 4% chloral hydrate and were fixed in a supine position. […] A small midline incision was made in the sterile area, then the bladder and the prostate carefully exposed. With a 30-gauge needle, 50 ul sterile suspension of 3% carrageenan (Sigma, MO, USA) or saline (sham group) was injected into both right and left ventral lobes of the prostate gland. […] While an equal amount of solvents were intraperitoneally and orally injected to control rats.
Compound,listed under heading Active MLKL Inhibitors,listed under heading Active RIP1 Inhibitors,listed under heading Active RIP3 Inhibitors
"Cn1c(=O)c2c(nc(S(C)(=O)=O)n2C)n(CC#Cc2cccc(O)c2)c1=O [TC13-172, 3-(3-(3-hydroxyphenyl)prop-2-yn-1-yl)-1,7-dimethyl-8-(methylsulfonyl)-3,7-dihydro-1H-purine-2,6-dione]",Active,–,–
"CN1C(=O)N[C@H](Cc2c[nH]c3c(Cl)cccc23)C1=O [(R)-5-((7-chloro-1H-indol-3-yl)methyl)-3-methylimidazolidine-2,4-dione]",–,Active,–
O=C(N1CCCC1c1cccc(F)c1)C1(C(F)(F)F)CCC1 (stereo not shown) [(2-(3-fluorophenyl)pyrrolidin-1-yl)(1-(trifluoromethyl)cyclobutyl)methanone],–,Active,–
"COc1ccc(OC)c(CS(=O)(=O)c2nc3c(c(=O)n(C)c(=O)n3C)n2C)c1 [TC13-58, (2,5-dimethoxybenzylsulfonyl)-1,3,7-trimethyl-1H-purine-2,6(3H,7H)-dione]",Active,–,–
"O=C1CCCc2ccc(Br)cc2N1 [8-bromo-4,5-dihydro-1H-benzo[b]azepin-2(3H)-one]",–,Active,–
"O=c1c2c3c(sc2ncn1Cc1ccccc1)CCC3 [3-benzyl-6,7-dihydro-3H-cyclopenta[4,5]thieno[2,3-d]pyrimidin-4(5H)-one]",–,Active,–
"CCC(C)(C)C(=O)N(O)Cc1ccc(F)cc1F [N-(2,4-Difluorobenzyl)-N-hydroxy-2,2-dimethylbutanamide]",–,Active,–
"CCn1c(S(C)(=O)=O)nc2c1c(=O)n(C)c(=O)n2C [TC13-74, 7-ethyl-1,3-dimethyl-8-(methylsulfonyl)-1H-purine-2,6(3H,7H)-dione]",Active,–,–
"CN1C(=O)[C@@H](NC(=O)c2nnc(Cc3ccccc3)[nH]2)COc2ccccc21 [(S)-5-benzyl-N-(5-methyl-4-oxo-2,3,4,5-tetrahydrobenzo[b][1,4]oxazepin-3-yl)-4H-1,2,4-triazole-3-carboxamide]",–,Active,–
"Nc1ncnc2occ(-c3ccc(NC(=O)Nc4cc(C(F)(F)F)ccc4F)cc3)c12 [Cpd27, 1-(4-(4-aminofuro[2,3-d]pyrimidin-5-yl)phenyl)-3-(2-fluoro-5-(trifluoromethyl)phenyl)urea]",–,Active,–
"C#CC(C)(C)C(=O)N1CC[C@H]1c1ccccc1 [(S)-2,2-dimethyl-1-(2-phenylazetidin-1-yl)but-3-yn-1-one]",–,Active,–
"O=C(NCc1c(F)ccc(Cl)c1F)c1snnc1C1CC1 [N-(3-chloro-2,6-difluorobenzyl)-4-cyclopropyl-1,2,3-thiadiazole-5-carboxamide]",–,Active,–
"CC(C)(C)c1nc(-c2cccc(NS(=O)(=O)c3c(F)cccc3F)c2F)c(-c2ccnc(N)n2)s1 [Dabrafenib, N-[3-[5-(2-amino-4-pyrimidinyl)-2-(1,1-dimethylethyl)-4-thiazolyl]-2-fluorophenyl]-2,6-difluoro-benzenesulfonamide]",–,–,Active
"O=C(N[C@H]1COc2cc(Cl)ccc2NC1=O)c1nnc(Cc2ccccc2)[nH]1 [(S)-5-benzyl-N-(8-chloro-4-oxo-2,3,4,5-tetrahydrobenzo[b][1,4]oxazepin-3-yl)-4H-1,2,4-triazole-3-carboxamide]",–,Active,–
"CC(C)(C)C(=O)N1N=CC[C@H]1c1ccccc1 [GSK963, (S)-2,2-dimethyl-1-(5-phenyl-4,5-dihydro-1H-pyrazol-1-yl)propan-1-on]",–,Active,–
"Cc1cc(-c2cnc(N)c3c(-c4ccc5scnc5c4)csc23)n(C)n1 [GSK'843, 3-(benzo[d]thiazol-5-yl)-7-(1,3-dimethyl-1H-pyrazol-5-yl)thieno[3,2-c]pyridin-4-amine]",–,–,Active
"CC(=O)N1CCC(C(=O)N2N=CC[C@H]2c2ccccc2)CC1 [(S)-1-(4-(5-phenyl-4,5-dihydro-1H-pyrazole-1-carbonyl)piperidin-1-yl)ethanone]",–,Active,–
"O=C(c1ccccc1)N1N=CC[C@H]1c1ccccc1 [(S)-phenyl(5-phenyl-4,5-dihydro-1H-pyrazol-1-yl)methanone]",–,Active,–
"CN1C(=O)[C@@H](NC(=O)c2cc(Cc3ccccc3)on2)COc2ccc(-c3nnn[nH]3)cc21 [(S)-5-benzyl-N-(5-methyl-4-oxo-7-(1H-tetrazol-5-yl)-2,3,4,5-tetrahydrobenzo[b][1,4]oxazepin-3-yl)isoxazole-3-carboxamide]",–,Active,–

Compound,listed under heading Active MLKL Inhibitors,listed under heading Active RIP1 Inhibitors,listed under heading Active RIP3 Inhibitors
"CNC(=O)c1ccc2c(c1)ncn2-c1ccc(CC(=O)OC(C)(C)C)cc1 [GSK'840, tert-butyl 2-(4-(5-(methylcarbamoyl)-1H-benzo[d]imidazol-1-yl)phenyl)acetate]",–,–,Active
"CCC(C)(C)C(=O)N(O)Cc1ccc(F)cc1 [N-(4-Fluorobenzyl)-N-hydroxy-2,2-dimethylbutanamide]",–,Active,–
"CC(C)(C)C(=O)N1N=CC[C@H]1c1ccccn1 [(S)-2,2-dimethyl-1-(5-(pyridin-2-yl)-4,5-dihydro-1H-pyrazol-1-yl)propan-1-one]",–,Active,–
"CNc1cc(C#CCn2c(=O)n(C)c(=O)c3c2nc(S(=O)(=O)Cc2cc(OC)ccc2OC)n3C)ccn1 [TC13-127, 8-((2,5-dimethoxybenzyl)sulfonyl)-1,7-dimethyl-3-(3-(2-(methylamino)pyridin-4-yl)prop-2-yn-1-yl)-3,7-dihydro-1H-purine-2,6-dione]",Active,–,–
"CN1C(=O)[C@@H](NC(=O)c2cc(Cc3ccccc3)on2)COc2ccccc21 [GSK481, (S)-5-benzyl-N-(5-methyl-4-oxo-2,3,4,5-tetrahydrobenzo[b][1,4]oxazepin-3-yl)isoxazole-3-carboxamide]",–,Active,–
"CC(=O)N1CCC(C(=O)N2N=CC[C@H]2c2cc(F)cc(F)c2)CC1 [(S)-1-(4-(5-(3,5-difluorophenyl)-4,5-dihydro-1H-pyrazole-1-carbonyl)piperidin-1-yl)ethanone]",–,Active,–
"CC(C)S(=O)(=O)c1ccc2nccc(Nc3ccc4scnc4c3)c2c1 [GSK'872, N-(6-(isopropylsulfonyl)quinolin-4-yl)benzo[d]thiazol-5-amine]",–,–,Active
"Cn1c(=O)c2c(nc(S(=O)(=O)CC3CC3)n2C)n(CC#Cc2cccc(Cl)c2)c1=O [TC13-119, 3-(3-(3-chlorophenyl)prop-2-yn-1-yl)-8-((cyclopropylmethyl)sulfonyl)-1,7-dimethyl-3,7-dihydro-1H-purine-2,6-dione]",Active,–,–
"Cc1ccc(CCCCN2C(=O)N[C@H](Cc3c[nH]c4c(Cl)cccc34)C2=O)cc1C#Cc1cnc2cccnn12 [Ponatinib-Nec1s, (R)-5-((7-chloro-1H-indol-3-yl)methyl)-3-(4-(3-(imidazo[1,2-b]pyridazin-3-ylethynyl)-4-methylphenyl)butyl)imidazolidine-2,4-dione]",–,Active,–
O=C(N1CCCC1c1cccc(F)c1)C1(C(F)(F)F)CCCC1 (stereo not shown) [(2-(3-fluorophenyl)pyrrolidin-1-yl)(1-(trifluoromethyl)cyclopentyl)methanone],–,Active,–
"CN1C(=O)[C@@H](NC(=O)c2n[nH]c(Cc3ccccc3)n2)COc2ccccc21 [GSK2982772, (S)-5-benzyl-N-(5-methyl-4-oxo-2,3,4,5-tetrahydrobenzo[b]-[1,4]oxazepin-3-yl)-1H-1,2,4-triazole-3-carboxamide]",–,Active,–
"Cn1c(=O)c2c(nc(S(C)(=O)=O)n2C)n(C)c1=O [TC13-4, 1,3,7-trimethyl-8-(methylsulfonyl)-1H-purine-2,6(3H,7H)-dione]",Active,–,–
"CCC(C)(C)C(=O)N(O)Cc1ccc(F)c(F)c1 [N-(3,4-Difluorobenzyl)-N-hydroxy-2,2-dimethylbutanamide]",–,Active,–
"CN1C(=O)C(Cc2c[nH]c3ccccc23)NC1=S (stereo not shown) [Nec-1, 5-((1H-indol-3-yl)methyl)-3-methyl-2-thioxoimidazolidin-4-one]",–,Active,–
"COc1nccnc1NS(=O)(=O)c1ccc(NC(=O)/C=C/c2ccc([N+](=O)[O-])s2)cc1 [Necrosulfonamide, (2E)-N-[4-[[(3-Methoxy-2-pyrazinyl)amino]sulfonyl]phenyl]-3-(5-nitro-2-thienyl)-2-propenamide]",Active,–,–
"C#CCn1c(=O)n(C)c(=O)c2c1nc(S(C)(=O)=O)n2C [TC13-106, 1,7-dimethyl-8-(methylsulfonyl)-3-(prop-2-ynyl)-1H-purine-2,6(3H,7H)-dione]",Active,–,–
"C[C@H](NC(=O)c1snnc1C1CC1)c1c(F)cccc1Cl [(S)—N-(1-(2-chloro-6-fluorophenyl)ethyl)-4-cyclopropyl-1,2,3-thiadiazole-5-carboxamide]",–,Active,–
"CCC(C)(C)C(=O)N1C(=O)C[C@H]1c1ccccc1 [(S)-1-(2,2-dimethylbutanoyl)-4-phenylazetidin-2-one]",–,Active,–
